Source: patent US20070117743A1, “New antitumoral compounds” (priority 2003, published 2007)
Where a SMILES comes first, the peptide text is derived from it. Bridges are numbered along the chain shown (N, C = ends). [ ]: non-standard residue; d: D form. The star is where a group is joined. d(aIle) = CC[C@H](C)[C@@H](N)C(=O)O; d(aThr) = C[C@@H](O)[C@@H](N)C(=O)O; Hexanoyl(5-Me) = CC(C)CCCC(=O)*; Orn = NCCC[C@H](N)C(=O)O; Dhb = C/C=C(\N)C(=O)O; Dha = C=C(N)C(=O)O

Experiments:
Assay type in all cases: cell-based, human
HeLa-APL = experiment: SRB colorimetric assay of cell growth and viability, HeLa-APL; conditions: 48 hours exposure, SRB; for CC50: read-out: LC50 HELA-APL
DU-145 = experiment: SRB colorimetric assay of cell growth and viability, DU-145; conditions: 48 hours exposure, SRB
IGROV-ET = experiment: SRB colorimetric assay of cell growth and viability, IGROV-ET; conditions: 48 hours exposure, SRB; for CC50: read-out: LC50 IGROV-ET
K-562 = experiment: SRB colorimetric assay of cell growth and viability, K-562; conditions: 48 hours exposure, SRB; for CC50: read-out: LC50 K-562
A-549 = experiment: SRB colorimetric assay of cell growth and viability, A-549; conditions: 48 hours exposure, SRB; for GI50: read-out: GI50 A-549; for CC50: read-out: LC50 A-549
LNCaP = experiment: SRB colorimetric assay of cell growth and viability, LNCaP; conditions: 48 hours exposure, SRB; for GI50: read-out: GI50 LN-caP; for CC50: read-out: LC50 LN-caP
SK-BR-3 = experiment: SRB colorimetric assay of cell growth and viability, SK-BR-3; conditions: 48 hours exposure, SRB
LoVo = experiment: SRB colorimetric assay of cell growth and viability, LoVo; conditions: 48 hours exposure, SRB; for CC50: read-out: LC50 LOVO
PANC-1 = experiment: SRB colorimetric assay of cell growth and viability, PANC-1; conditions: 48 hours exposure, SRB; for CC50: read-out: LC50 PANC-1
SK-MEL-28 = experiment: SRB colorimetric assay of cell growth and viability, SK-MEL-28; conditions: 48 hours exposure, SRB; for CC50: read-out: LC50 MEL-28
HT-29 = experiment: SRB colorimetric assay of cell growth and viability, HT-29; conditions: 48 hours exposure, SRB; for GI50: read-out: GI50 HT-29; for CC50: read-out: LC50 HT-29
HeLa = experiment: SRB colorimetric assay of cell growth and viability, HeLa; conditions: 48 hours exposure, SRB; for CC50: read-out: LC50 HELA
LoVo-Dox = experiment: SRB colorimetric assay of cell growth and viability, LoVo-Dox; conditions: 48 hours exposure, SRB; for CC50: read-out: LC50 LOVO-DOX
Summary of the method: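 Optical density at 490 nm of solubilized SRB, from triplicate wells, yields GI, TGI and LC values. Before staining, cells are fixed for 60 minutes at 4° C in cold TCA after a 48-hour exposure.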

IGROV-1 = experiment: SRB colorimetric assay of cell growth and viability, IGROV-1; conditions: 48 hours exposure, SRB

Structure (SMILES): C=C1NC(=O)[C@H](Cc2ccccc2)NC(=O)[C@@H](C(C)C)NC(=O)[C@@H]([C@@H](C)CC)NC(=O)[C@H](NC(=O)[C@H](NC(=O)[C@H](CCCN)NC(=O)[C@H]2CCCN2C(=O)[C@H](NC(=O)[C@@H](NC(=O)[C@@H](NC(=O)[C@H](NC(=O)CCCC(C)C)C(C)C)[C@@H](C)O)C(C)C)C(C)C)[C@@H](C)CC)[C@@H](C)OC(=O)[C@H](C(C)C)NC1=O [Compound 67, [Dha^2]-KF] ({Hexanoyl(5-Me)}-[dV]TV[dV][dP][Orn][d(aIle)][d(aThr)][d(aIle)][dV]F[Dha]V; ester 8-C)
- GI50 (HeLa-APL): 1090 nM
- TGI HELA-APL (HeLa-APL): 2.03E−06 Molar
- CC50 (HeLa-APL): 3.75 µM
- GI50 (DU-145): 915 nM
- LC50 (concentration causing 50% net cell kill) (DU-145): 3.4 µM
- TGI DU-145 (DU-145): 1.77E−06 Molar
- GI50 (IGROV-ET): 390 nM
- TGI IGROV-ET (IGROV-ET): 1.33E−06 Molar
- CC50 (IGROV-ET): 4.53 µM
- GI50 (K-562): 2.92 µM
- TGI K-562 (K-562): 6.83E−06 Molar
- CC50 (K-562): ≥ 6.83 µM
- TGI A-549 (A-549): 2.70E−06 Molar
- GI50 (A-549): 1440 nM
- CC50 (A-549): 5.06 µM
- TGI LN-caP (LNCaP): 4.60E−06 Molar
- GI50 (LNCaP): 1830 nM
- CC50 (LNCaP): ≥ 6.83 µM
- GI50 (SK-BR-3): 320 nM
- LC50 (SK-BR-3): 2210 nM
- TGI SK-BR-3 (SK-BR-3): 5.56E−07 Molar
- GI50 (LoVo): 173 nM
- TGI LOVO (LoVo): 3.40E−07 Molar
- CC50 (LoVo): 669 nM
- GI50 (PANC-1): ≥ 6.83 µM
- TGI PANC-1 (PANC-1): 6.83E−06 Molar
- CC50 (PANC-1): ≥ 6.83 µM
- GI50 (SK-MEL-28): 1130 nM
- TGI MEL-28 (SK-MEL-28): 2.25E−06 Molar
- CC50 (SK-MEL-28): 4.51 µM
- TGI HT-29 (HT-29): 9.63E−07 Molar
- GI50 (HT-29): 347 nM
- CC50 (HT-29): 4.17 µM
- GI50 (HeLa): 1150 nM
- TGI HELA (HeLa): 2.15E−06 Molar
- CC50 (HeLa): 4 µM
- GI50 (LoVo-Dox): 264 nM
- TGI LOVO-DOX (LoVo-Dox): 5.61E−06 Molar
- CC50 (LoVo-Dox): 2470 nM
- GI50 (IGROV-1): 553 nM
- LC50 (concentration causing 50% net cell killing) (IGROV-1): 4.59 µM
- TGI IGROV (IGROV-1): 1.58E−06 Molar

Structure (SMILES): C/C=C1\NC(=O)[C@H](Cc2c[nH]c3ccccc23)NC(=O)[C@@H](C(C)C)NC(=O)[C@@H]([C@@H](C)CC)NC(=O)[C@H](NC(=O)[C@H](NC(=O)[C@H](CCCN)NC(=O)[C@H]2CCCN2C(=O)[C@H](NC(=O)[C@@H](NC(=O)[C@@H](NC(=O)[C@H](NC(=O)CCCC(C)C)C(C)C)[C@@H](C)O)C(C)C)C(C)C)[C@@H](C)CC)[C@@H](C)OC(=O)[C@H](C(C)C)NC1=O [Compound 68, [Trp^3]-KF] ({Hexanoyl(5-Me)}-[dV]TV[dV][dP][Orn][d(aIle)][d(aThr)][d(aIle)][dV]W[Dhb]V; ester 8-C)
- GI50 (HeLa-APL): 943 nM
- TGI HELA-APL (HeLa-APL): 1.90E−06 Molar
- CC50 (HeLa-APL): 3.82 µM
- GI50 (DU-145): 470 nM
- LC50 (concentration causing 50% net cell kill) (DU-145): 2.85 µM
- TGI DU-145 (DU-145): 1.21E−06 Molar
- GI50 (IGROV-ET): 150 nM
- TGI IGROV-ET (IGROV-ET): 2.73E−07 Molar
- CC50 (IGROV-ET): 0.499 µM
- GI50 (K-562): 3.7 µM
- TGI K-562 (K-562): 6.59E−06 Molar
- CC50 (K-562): 6.59 µM
- TGI A-549 (A-549): 2.83E−06 Molar
- GI50 (A-549): 1560 nM
- CC50 (A-549): 5.12 µM
- TGI LN-caP (LNCaP): 2.36E−06 Molar
- GI50 (LNCaP): 1050 nM
- CC50 (LNCaP): 5.29 µM
- GI50 (SK-BR-3): 150 nM
- LC50 (SK-BR-3): 655 nM
- TGI SK-BR-3 (SK-BR-3): 3.13E−07 Molar
- GI50 (LoVo): 337 nM
- TGI LOVO (LoVo): 9.49E−07 Molar
- CC50 (LoVo): 2620 nM
- GI50 (PANC-1): 6.59 µM
- TGI PANC-1 (PANC-1): 6.59E−06 Molar
- CC50 (PANC-1): 6.59 µM
- GI50 (SK-MEL-28): 1250 nM
- TGI MEL-28 (SK-MEL-28): 2.17E−06 Molar
- CC50 (SK-MEL-28): 3.77 µM
- TGI HT-29 (HT-29): 1.40E−06 Molar
- GI50 (HT-29): 512 nM
- CC50 (HT-29): 3.66 µM
- GI50 (HeLa): 1030 nM
- TGI HELA (HeLa): 2.05E−06 Molar
- CC50 (HeLa): 4.04 µM
- GI50 (LoVo-Dox): 281 nM
- TGI LOVO-DOX (LoVo-Dox): 6.47E−07 Molar
- CC50 (LoVo-Dox): 2530 nM
- GI50 (IGROV-1): 87 nM
- LC50 (concentration causing 50% net cell killing) (IGROV-1): 0.453 µM
- TGI IGROV (IGROV-1): 1.98E−07 Molar

Structure (SMILES): C/C=C1\NC(=O)[C@@H](Cc2ccccc2)NC(=O)[C@H](C(C)C)NC(=O)[C@H]([C@H](C)CC)NC(=O)[C@@H](NC(=O)[C@@H](NC(=O)[C@@H](CCCN)NC(=O)[C@@H]2CCCN2C(=O)[C@@H](NC(=O)[C@H](NC(=O)[C@H](NC(=O)[C@@H](NC(=O)CCCC(C)C)C(C)C)[C@H](C)O)C(C)C)C(C)C)[C@H](C)CC)[C@H](C)OC(=O)[C@@H](C(C)C)NC1=O [Compound 69, [D-Val^1, D-Phe^3, Val^4, alo-Ile^5, alo-Thr^6, alo-Ile^7, D-Orn^8, Pro^9, Val^10, D-Val^11, D-Thr^12, Val^13] KF]
- GI50 (HeLa-APL): ≥ 6770 nM
- TGI HELA-APL (HeLa-APL): 6.77E−06 Molar
- CC50 (HeLa-APL): ≥ 6.77 µM
- GI50 (DU-145): ≥ 6770 nM
- LC50 (concentration causing 50% net cell kill) (DU-145): ≥ 6.77 µM
- TGI DU-145 (DU-145): 6.77E−06 Molar
- GI50 (IGROV-ET): ≥ 6770 nM
- TGI IGROV-ET (IGROV-ET): 6.77E−06 Molar
- CC50 (IGROV-ET): ≥ 6.77 µM
- GI50 (K-562): ≥ 6.77 µM
- TGI K-562 (K-562): 6.77E−06 Molar
- CC50 (K-562): ≥ 6.77 µM
- TGI A-549 (A-549): 6.77E−06 Molar
- GI50 (A-549): ≥ 6770 nM
- CC50 (A-549): ≥ 6.77 µM
- TGI LN-caP (LNCaP): 6.77E−06 Molar
- GI50 (LNCaP): 2350 nM
- CC50 (LNCaP): ≥ 6.77 µM
- GI50 (SK-BR-3): 6720 nM
- LC50 (SK-BR-3): ≥ 6770 nM
- TGI SK-BR-3 (SK-BR-3): 6.77E−06 Molar
- GI50 (LoVo): ≥ 6770 nM
- TGI LOVO (LoVo): 6.77E−06 Molar
- CC50 (LoVo): ≥ 6770 nM
- GI50 (PANC-1): ≥ 6.77 µM
- TGI PANC-1 (PANC-1): 6.77E−06 Molar
- CC50 (PANC-1): ≥ 6.77 µM
- GI50 (SK-MEL-28): ≥ 6770 nM
- TGI MEL-28 (SK-MEL-28): 6.77E−06 Molar
- CC50 (SK-MEL-28): ≥ 6.77 µM
- TGI HT-29 (HT-29): 6.77E−06 Molar
- GI50 (HT-29): ≥ 6770 nM
- CC50 (HT-29): ≥ 6.77 µM
- GI50 (HeLa): ≥ 6770 nM
- TGI HELA (HeLa): 6.77E−06 Molar
- CC50 (HeLa): ≥ 6.77 µM
- GI50 (LoVo-Dox): ≥ 6770 nM
- TGI LOVO-DOX (LoVo-Dox): 6.77E−06 Molar
- CC50 (LoVo-Dox): ≥ 6770 nM
- GI50 (IGROV-1): 4370 nM
- LC50 (concentration causing 50% net cell killing) (IGROV-1): ≥ 6.77 µM
- TGI IGROV (IGROV-1): 6.77E−06 Molar
